The values that follow come from ChEMBL document CHEMBL1201862, “PubChem BioAssay data set” (2004).

Among the test systems are EKVX; NCI-H226; SW-620; SF-268; M14; SK-OV-3; UACC-62; SN12C; OVCAR-3; HT-29; BT-549; RPMI-8226; HOP-62; CCRF-CEM; UACC-257; HOP-92; OVCAR-5; LOX IMVI; NCI-H522; Hs-578T.
Test in all cases: NCI tumour cell line growth inhibition, 48 h

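Each compound was tested at five concentrations against cells in 96-well plates for 48 hours. GI50: concentration for 50% inhibition of growth.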 Active and inactive are the calls of the source. Cut-off read from the data, not from the text of the source: active = GI50 up to about 1.1 µM and inactive = higher.

As to `O=S(=O)(c1ccccc1)C1(CCC2OCCO2)C=CC2(CC1)OCCO2` (centres undefined), the GI50 with EKVX, with NCI-H226, in the test with SW-620, with SF-268, in the test with M14 and in the test with SK-OV-3 was > 100 µM (inactive) each time. For the same molecule, the GI50 in the test with UACC-62, in the test with SN12C, with OVCAR-3, with HT-29, with BT-549 and in the test with RPMI-8226 was > 100 µM (inactive) throughout. For the same molecule, the GI50 in the test with HOP-62, in the test with CCRF-CEM, with UACC-257, in the test on HOP-92 and with OVCAR-5 was > 100 µM (inactive) each time.
`CCCCCCCCCCCC[S+](C)C`: the GI50 was 4.83 µM (inactive) in the test on EKVX; 1.77 µM (inactive) in the test on NCI-H226; 9.23 µM (inactive) in the test with SW-620; 2.86 µM (inactive) in the test on LOX IMVI; 6.68 µM (inactive) in the test on SF-268; 5.14 µM (inactive) in the test with M14. Further, the GI50 was 8.49 µM (inactive) with SK-OV-3; 6.4 µM (inactive) in the test on UACC-62; 3.88 µM (inactive) in the test with SN12C; 5.38 µM (inactive) in the test with OVCAR-3; 3.41 µM (inactive) in the test on HT-29; 2.19 µM (inactive) in the test on BT-549. Also, the GI50 in the test on RPMI-8226 was 3.41 µM (inactive); in the test with HOP-62 it was 0.665 µM (active); with NCI-H522, 3.7 µM (inactive); with CCRF-CEM, 2.04 µM (inactive); in the test on UACC-257, 4.18 µM (inactive); with HOP-92 it was 1.63 µM (inactive). Moreover, the GI50 in the test with OVCAR-5 is 8.43 µM (inactive).
For `CCOC(=O)/C(C(=O)Nc1cccc(Cl)c1)=C(/N)N1CCCC1`, the GI50 in the test with EKVX, with NCI-H226, in the test on SW-620, with Hs-578T, in the test on LOX IMVI and with SF-268 was > 100 µM (inactive) each time. For the same molecule, the GI50 in the test on M14, in the test on SK-OV-3, in the test with UACC-62, in the test with SN12C, in the test on OVCAR-3 and in the test with HT-29 was > 100 µM (inactive) in each case. Besides, the GI50 in the test with BT-549, in the test with RPMI-8226, in the test with HOP-62, with NCI-H522, in the test with CCRF-CEM and in the test on UACC-257 was > 100 µM (inactive) in each case. Moreover, the GI50 with OVCAR-5 was > 100 µM (inactive).
Take `COc1cccc(C2SC(=N)Nc3c2c(C)nn3C(=O)c2ccccc2O)c1` (centres undefined): the GI50 in the test with EKVX is > 9.14 µM (inactive); in the test with NCI-H226, > 2.56 µM (inactive); with SW-620, > 7.14 µM (inactive); with LOX IMVI, > 4.26 µM (inactive); in the test on SF-268 it was > 4.32 µM (inactive); in the test on M14, > 5.47 µM (inactive). For the same molecule, the GI50 in the test on SK-OV-3 is > 7.5 µM (inactive); in the test with UACC-62, 1.76 µM (inactive); in the test on SN12C, > 3.35 µM (inactive); in the test with OVCAR-3, > 3.65 µM (inactive); in the test with HT-29, > 6.17 µM (inactive); in the test with BT-549, > 10 µM (inactive). Besides, the GI50 with RPMI-8226 is > 10 µM (inactive); in the test with HOP-62, > 7.1 µM (inactive); with NCI-H522, > 5.41 µM (inactive); in the test with CCRF-CEM, > 3.21 µM (inactive); in the test on UACC-257, 2.68 µM (inactive); with HOP-92 it was > 2.08 µM (inactive). Moreover, the GI50 in the test with OVCAR-5 was > 6.73 µM (inactive).
On to `CCOC(=O)CCC(NC(=O)C(N)c1ccc([N+](=O)[O-])cc1)C(=O)NC(CCC(=O)OCC)C(=O)OCC` (centres undefined), for which the GI50 in the test on EKVX, with NCI-H226, in the test on SW-620, in the test on Hs-578T, in the test on M14 and in the test on UACC-62 was > 100 µM (inactive) in each case. Moreover, the GI50 in the test on SN12C, in the test with HT-29, with BT-549, in the test on RPMI-8226, with HOP-62 and with UACC-257 was > 100 µM (inactive) in each case. Moreover, the GI50 with HOP-92 and with OVCAR-5 was > 100 µM (inactive) in each case.
Regarding `COc1ccc(Nc2nc3ccccc3n3cccc23)cc1OC`, the GI50 in the test on EKVX was 25.7 µM (inactive); with SW-620, 16.2 µM (inactive); with Hs-578T it was 37.9 µM (inactive); in the test with LOX IMVI it was 14.4 µM (inactive); with SF-268, 21.9 µM (inactive); in the test on M14 it was 15.8 µM (inactive). For the same molecule, the GI50 in the test on SK-OV-3 is 27 µM (inactive); in the test on UACC-62, 14.3 µM (inactive); in the test on OVCAR-3, 19.1 µM (inactive); with HT-29 it was 7.74 µM (inactive); in the test with BT-549, 18.5 µM (inactive); in the test on RPMI-8226, 11.8 µM (inactive). Moreover, the GI50 was 16.3 µM (inactive) in the test on HOP-62; 16 µM (inactive) with NCI-H522; 1.05 µM (active) in the test on CCRF-CEM; 16 µM (inactive) in the test with UACC-257; 34.4 µM (inactive) in the test on HOP-92; 32.7 µM (inactive) with OVCAR-5.
For the molecule `N=C(N)NC(CC(=O)O)c1ccccc1` (centres undefined), the GI50 in the test on EKVX, in the test on SW-620, with Hs-578T, with LOX IMVI, in the test with SF-268 and in the test on M14 was > 100 µM (inactive) throughout. Further, the GI50 with SK-OV-3, with UACC-62, in the test with SN12C, in the test on OVCAR-3, with HT-29 and in the test on BT-549 was > 100 µM (inactive) each time. Also, the GI50 in the test with RPMI-8226, in the test with HOP-62, in the test on NCI-H522, in the test with UACC-257, in the test with HOP-92 and in the test with OVCAR-5 was > 100 µM (inactive) each time.
Regarding `COc1ccc(-n2c3c(c4cc(O)ccc42)C(=O)c2ccccc2C3=O)cc1`, the GI50 in the test with EKVX is 4.74 µM (inactive); in the test with SW-620, > 100 µM (inactive); with Hs-578T, 7.24 µM (inactive); with LOX IMVI, 4.71 µM (inactive); in the test with SF-268 it was 2.14 µM (inactive); with M14, > 100 µM (inactive). Besides, the GI50 in the test on SK-OV-3 was 0.404 µM (active); in the test on UACC-62 it was 3.5 µM (inactive); with SN12C it was 2.3 µM (inactive); in the test on OVCAR-3, 8.38 µM (inactive); in the test on HT-29 it was 3.94 µM (inactive); in the test with BT-549, 11.2 µM (inactive). Besides, the GI50 with RPMI-8226 is 13.8 µM (inactive); with HOP-62 it was 2.26 µM (inactive); in the test on NCI-H522 it was 16.6 µM (inactive); with UACC-257, > 100 µM (inactive); in the test on HOP-92 it was 16.9 µM (inactive); in the test with OVCAR-5, 6.04 µM (inactive).
Take `CNc1nc(N)c(N=O)c(Nc2ccc(Br)cc2)n1`: the GI50 was 13.7 µM (inactive) in the test on EKVX; > 100 µM (inactive) in the test with SW-620; 5.35 µM (inactive) in the test with Hs-578T; > 100 µM (inactive) in the test on LOX IMVI; 72.9 µM (inactive) in the test on SF-268; > 100 µM (inactive) in the test on UACC-62. The GI50 in the test on SN12C, in the test with OVCAR-3, in the test with HT-29, with BT-549, with RPMI-8226 and with HOP-62 was > 100 µM (inactive) in each case. Also, the GI50 is > 100 µM (inactive) in the test with NCI-H522, 81.8 µM (inactive) with CCRF-CEM, > 100 µM (inactive) in the test with UACC-257 and > 100 µM (inactive) with OVCAR-5.
`O=C1c2ccccc2C2(c3ccc(Cl)cc3)NCc3ccccc3CN12` (centres undefined): the GI50 was 20.6 µM (inactive) in the test on EKVX; 37.2 µM (inactive) in the test on SW-620; 22.5 µM (inactive) in the test on Hs-578T; 16.2 µM (inactive) in the test on LOX IMVI; 35.1 µM (inactive) with SF-268; 18 µM (inactive) in the test on M14. The GI50 in the test on SK-OV-3 was 31.2 µM (inactive); in the test on UACC-62, 17.3 µM (inactive); with SN12C, 43.4 µM (inactive); with OVCAR-3 it was 13.4 µM (inactive); in the test on HT-29, 15.2 µM (inactive); in the test with BT-549, 43.1 µM (inactive). Moreover, the GI50 is 21.8 µM (inactive) in the test with RPMI-8226; 15.5 µM (inactive) in the test with HOP-62; 25.9 µM (inactive) with CCRF-CEM; 33 µM (inactive) in the test on UACC-257; 19.7 µM (inactive) in the test with HOP-92; 21.7 µM (inactive) with OVCAR-5.
In the case of `N=c1oc2ccc(Cl)cc2cc1C(=O)NC1CCCCC1`, the GI50 in the test with NCI-H226 is 90.4 µM (inactive); in the test on SW-620 it was 96.4 µM (inactive); in the test with Hs-578T, 30.9 µM (inactive); in the test on LOX IMVI, 53 µM (inactive); in the test with SF-268, > 100 µM (inactive); in the test on M14 it was > 100 µM (inactive). Further, the GI50 in the test on SK-OV-3 is > 100 µM (inactive); in the test with UACC-62, 59.2 µM (inactive); in the test on SN12C, > 100 µM (inactive); with OVCAR-3, 44.4 µM (inactive); with HT-29 it was > 100 µM (inactive); with BT-549, > 100 µM (inactive). Besides, the GI50 in the test on RPMI-8226 is 59.3 µM (inactive); with HOP-62, > 100 µM (inactive); in the test on CCRF-CEM it was 33.7 µM (inactive); with UACC-257, > 100 µM (inactive); in the test on HOP-92, > 100 µM (inactive); in the test with OVCAR-5, > 100 µM (inactive).
